{"source": "patent US12692238B2", "about": "“Substituted pyridazinone herbicides” (FMC CORPORATION, priority 2020, dated 2026)", "type_in_all_cases": "in vivo", "key": {"[1]": {"tested_on": "corn (Zea mays)", "assay": "Test A postemergence, corn", "settings": "10 days", "in_short": "(§1)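 Herbicidal response was scored visually after ten greenhouse days, comparing treated pots with untreated ones on a 0–100 control scale. Preemergence application was a directed soil spray; postemergence plants were treated at 2 to 10 cm height.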"}, "[2]": {"tested_on": "foxtail, giant (giant foxtail, Setaria faberi)", "assay": "Test A preemergence, foxtail, giant", "settings": "0 to 100 scale, 10 days", "in_short": "as §1"}, "[3]": {"tested_on": "ryegrass, Italian (Italian ryegrass, Lolium multiflorum)", "assay": "Test A preemergence, ryegrass, Italian", "settings": "0 to 100 scale, 10 days", "in_short": "as §1"}, "[4]": {"tested_on": "palmer amaranth (pigweed, palmer, Amaranthus palmeri)", "assay": "Test A postemergence, palmer amaranth", "settings": "10 days", "excerpt": "(§2) Seeds of plant species selected from barnyardgrass (Echinochloa crus-galli), blackgrass (Alopecurus myosuroides), corn (Zea mays), foxtail, giant (giant foxtail, Setaria faberi), foxtail, green (green foxtail, Setaria viridis), goosegrass (Eleusine indica), kochia (Bassia scoparia), oat, wild (wild oat, Avena fatua), palmer amaranth (pigweed, palmer, Amaranthus palmeri), redroot pigweed (Amaranthus retroflexus), ragweed (common ragweed, Ambrosia artemisiifolia), ryegrass, Italian (Italian ryegrass, Lolium multiflorum), and soybean (Glycine max) were planted into a blend of loam soil and sand and treated preemergence with a directed soil spray using test chemicals formulated in a non-phytotoxic solvent mixture which included a surfactant.\n(§3) At the same time, plants selected from these crop and weed species and also wheat (Triticum aestivum), galium (catchweed bedstraw, Galium aparine) and horseweed (Erigeron canadensis) were planted in pots containing the same blend of loam soil and sand and treated with postemergence applications of test chemicals formulated in the same manner. Plants ranged in height from 2 to 10 cm and were in the one- to two-leaf stage for the postemergence treatment. Treated plants and untreated controls were maintained in a greenhouse for 10 days, after which time all treated plants were compared to untreated controls and visually evaluated for injury. Plant response ratings, summarized in Table A, are based on a 0 to 100 scale where 0 is no effect and 100 is complete control. A dash (-) response means no test result."}, "[5]": {"tested_on": "ragweed (common ragweed, Ambrosia artemisiifolia)", "assay": "Test A postemergence, ragweed", "settings": "10 days", "in_short": "as §1"}, "[6]": {"tested_on": "ragweed (common ragweed, Ambrosia artemisiifolia)", "assay": "Test A preemergence, ragweed", "settings": "0 to 100 scale, 10 days", "in_short": "as §1"}, "[7]": {"tested_on": "sedge, umbrella (small-flower umbrella sedge, Cyperus difformis)", "assay": "Test B flooded paddy test, sedge, umbrella", "settings": "250 g ai/ha, Flood; visually evaluated after 10 to 14 days", "in_short": "(§4)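 Water-applied treatment of 2-leaf plants in pots kept flooded at 3 cm. Visual control rating (0–100) against untreated plants after 10–14 greenhouse days.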"}, "[8]": {"tested_on": "wheat (Triticum aestivum)", "assay": "Test A postemergence, wheat", "settings": "10 days", "in_short": "as §1"}, "[9]": {"tested_on": "horseweed (Erigeron canadensis)", "assay": "Test A postemergence, horseweed", "settings": "10 days", "excerpt": "as §2, §3"}, "[10]": {"tested_on": "soybean (Glycine max)", "assay": "Test A preemergence, soybean", "settings": "0 to 100 scale, 10 days", "excerpt": "as §2, §3"}, "[11]": {"tested_on": "corn (Zea mays)", "assay": "Test A preemergence, corn", "settings": "0 to 100 scale, 10 days", "excerpt": "as §2, §3"}, "[12]": {"tested_on": "soybean (Glycine max)", "assay": "Test A postemergence, soybean", "settings": "10 days", "excerpt": "as §2, §3"}, "[13]": {"tested_on": "kochia (Bassia scoparia)", "assay": "Test A preemergence, kochia", "settings": "0 to 100 scale, 10 days", "in_short": "as §1"}, "[14]": {"tested_on": "barnyardgrass (Echinochloa crus-galli)", "assay": "Test B flooded paddy test, barnyardgrass", "settings": "250 g ai/ha, Flood; visually evaluated after 10 to 14 days", "in_short": "as §4"}, "[15]": {"tested_on": "blackgrass (Alopecurus myosuroides)", "assay": "Test A postemergence, blackgrass", "settings": "10 days", "in_short": "as §1"}, "[16]": {"tested_on": "foxtail, giant (giant foxtail, Setaria faberi)", "assay": "Test A postemergence, foxtail, giant", "settings": "10 days", "in_short": "as §1"}, "[17]": {"tested_on": "goosegrass (Eleusine indica)", "assay": "Test A preemergence, goosegrass", "settings": "0 to 100 scale, 10 days", "excerpt": "as §2, §3"}, "[18]": {"tested_on": "wheat (Triticum aestivum)", "assay": "Test A preemergence, wheat", "settings": "125 g ai/ha, 0 to 100 scale, 10 days"}, "[19]": {"tested_on": "galium (catchweed bedstraw, Galium aparine)", "assay": "Test A postemergence, galium", "settings": "10 days", "in_short": "as §1"}, "[20]": {"tested_on": "rice (Oryza sativa)", "assay": "Test B flooded paddy test, rice", "settings": "250 g ai/ha, Flood; visually evaluated after 10 to 14 days", "in_short": "as §4"}, "[21]": {"tested_on": "goosegrass (Eleusine indica)", "assay": "Test A postemergence, goosegrass", "settings": "10 days", "excerpt": "as §2, §3"}, "[22]": {"tested_on": "palmer amaranth (pigweed, palmer, Amaranthus palmeri)", "assay": "Test A preemergence, palmer amaranth", "settings": "0 to 100 scale, 10 days", "excerpt": "as §2, §3"}, "[23]": {"tested_on": "ducksalad (Heteranthera limosa)", "assay": "Test B flooded paddy test, ducksalad", "settings": "250 g ai/ha, Flood; visually evaluated after 10 to 14 days", "in_short": "as §4"}, "[24]": {"tested_on": "oat, wild (wild oat, Avena fatua)", "assay": "Test A postemergence, oat, wild", "settings": "10 days", "excerpt": "as §2, §3"}, "[25]": {"tested_on": "oat, wild (wild oat, Avena fatua)", "assay": "Test A preemergence, oat, wild", "settings": "0 to 100 scale, 10 days", "excerpt": "as §2, §3"}, "[26]": {"tested_on": "ryegrass, Italian (Italian ryegrass, Lolium multiflorum)", "assay": "Test A postemergence, ryegrass, Italian", "settings": "10 days", "in_short": "as §1"}, "[27]": {"tested_on": "kochia (Bassia scoparia)", "assay": "Test A postemergence, kochia", "settings": "10 days", "in_short": "as §1"}, "[28]": {"tested_on": "blackgrass (Alopecurus myosuroides)", "assay": "Test A preemergence, blackgrass", "settings": "0 to 100 scale, 10 days", "excerpt": "as §2, §3"}, "[29]": {"settings": "31 g ai/ha, postemergence, 0 to 100 scale (0 no effect, 100 complete control)"}, "[30]": {"settings": "Postemergence, 125 g ai/ha, 0 to 100 scale"}}}
{"smiles": "Cc1cc(C)c2cc3ccccc3c(-c3c(OCOC(=O)C(C)(C)C)c(Cl)nn(C)c3=O)c2c1", "note": "[Compound 20]", "values": [{"measurement": "Plant response rating, Corn", "setting": "[1]; [29]", "value": 10}, {"measurement": "Plant response rating, Corn", "setting": "[1]; [30]", "value": 20}, {"measurement": "Plant response rating, Foxtail, Giant", "setting": "[2]; 31 g ai/ha", "value": 0}, {"measurement": "Plant response rating, Foxtail, Giant", "setting": "[2]; 125 g ai/ha", "value": 20}, {"measurement": "Plant response rating, Ryegrass, Italian", "setting": "[3]; 31 g ai/ha", "value": 0}, {"measurement": "Plant response rating, Ryegrass, Italian", "setting": "[3]; 125 g ai/ha", "value": 0}, {"measurement": "Plant response rating, Pigweed, Palmer", "setting": "[4]; [29]", "value": 50}, {"measurement": "Plant response rating, Pigweed, Palmer", "setting": "[4]; [30]", "value": 50}, {"measurement": "Plant response rating, Ragweed", "setting": "[5]; [29]", "value": 70}, {"measurement": "Plant response rating, Ragweed", "setting": "[5]; [30]", "value": 70}, {"measurement": "Plant response rating, Ragweed", "setting": "[6]; 31 g ai/ha", "value": 0}, {"measurement": "Plant response rating, Ragweed", "setting": "[6]; 125 g ai/ha", "value": 50}, {"measurement": "Plant response rating, Sedge, Umbrella (0 to 100 scale where 0 is no effect and 100 is complete control)", "setting": "[7]", "value": 90}, {"measurement": "Plant response rating, Wheat", "setting": "[8]; [29]", "value": 0}, {"measurement": "Plant response rating, Wheat", "setting": "[8]; [30]", "value": 0}, {"measurement": "Plant response rating, Horseweed", "setting": "[9]; [29]", "value": 90}, {"measurement": "Plant response rating, Horseweed", "setting": "[9]; [30]", "value": 80}, {"measurement": "Plant response rating, Soybean", "setting": "[10]; 31 g ai/ha", "value": 0}, {"measurement": "Plant response rating, Soybean", "setting": "[10]; 125 g ai/ha", "value": 0}, {"measurement": "Plant response rating, Corn", "setting": "[11]; 31 g ai/ha", "value": 0}, {"measurement": "Plant response rating, Corn", "setting": "[11]; 125 g ai/ha", "value": 0}, {"measurement": "Plant response rating, Soybean", "setting": "[12]; [29]", "value": 0}, {"measurement": "Plant response rating, Soybean", "setting": "[12]; [30]", "value": 0}, {"measurement": "Plant response rating, Kochia", "setting": "[13]; 31 g ai/ha", "value": 0}, {"measurement": "Plant response rating, Kochia", "setting": "[13]; 125 g ai/ha", "value": 0}, {"measurement": "Plant response rating, Barnyardgrass (0 to 100 scale where 0 is no effect and 100 is complete control)", "setting": "[14]", "value": 25}, {"measurement": "Plant response rating, Blackgrass", "setting": "[15]; [29]", "value": 0}, {"measurement": "Plant response rating, Blackgrass", "setting": "[15]; [30]", "value": 0}, {"measurement": "Plant response rating, Foxtail, Giant", "setting": "[16]; [29]", "value": 20}, {"measurement": "Plant response rating, Foxtail, Giant", "setting": "[16]; [30]", "value": 30}, {"measurement": "Plant response rating, Goosegrass", "setting": "[17]; 31 g ai/ha", "value": 0}, {"measurement": "Plant response rating, Goosegrass", "setting": "[17]; 125 g ai/ha", "value": 0}, {"measurement": "Plant response rating, Wheat", "setting": "[18]", "value": 0}, {"measurement": "Plant response rating, Galium", "setting": "[19]; [29]", "value": 50}, {"measurement": "Plant response rating, Galium", "setting": "[19]; [30]", "value": 50}, {"measurement": "Plant response rating, Rice (0 to 100 scale where 0 is no effect and 100 is complete control)", "setting": "[20]", "value": 0}, {"measurement": "Plant response rating, Goosegrass", "setting": "[21]; [29]", "value": 30}, {"measurement": "Plant response rating, Goosegrass", "setting": "[21]; [30]", "value": 30}, {"measurement": "Plant response rating, Pigweed, Palmer", "setting": "[22]; 31 g ai/ha", "value": 30}, {"measurement": "Plant response rating, Pigweed, Palmer", "setting": "[22]; 125 g ai/ha", "value": 60}, {"measurement": "Plant response rating, Ducksalad (0 to 100 scale where 0 is no effect and 100 is complete control)", "setting": "[23]", "value": 100}, {"measurement": "Plant response rating, Oat, Wild", "setting": "[24]; [29]", "value": 0}, {"measurement": "Plant response rating, Oat, Wild", "setting": "[24]; [30]", "value": 0}, {"measurement": "Plant response rating, Oat, Wild", "setting": "[25]; 31 g ai/ha", "value": 0}, {"measurement": "Plant response rating, Oat, Wild", "setting": "[25]; 125 g ai/ha", "value": 0}, {"measurement": "Plant response rating, Ryegrass, Italian", "setting": "[26]; [29]", "value": 0}, {"measurement": "Plant response rating, Ryegrass, Italian", "setting": "[26]; [30]", "value": 0}, {"measurement": "Plant response rating, Kochia", "setting": "[27]; [29]", "value": 40}, {"measurement": "Plant response rating, Kochia", "setting": "[27]; [30]", "value": 60}, {"measurement": "Plant response rating, Blackgrass", "setting": "[28]; 31 g ai/ha", "value": 0}, {"measurement": "Plant response rating, Blackgrass", "setting": "[28]; 125 g ai/ha", "value": 10}]}
